Experimental data from PMC3348578 (2009).

Assays:
DPP4-like protease = experiment: honeybee venom gland extracts; conditions: cited from earlier work
[1] = tested on: FAP (purified recombinant FAP; His-tagged FAP lacking the transmembrane domain); experiment: purified FAP in FAP assay buffer containing 100 mmol/L Tris, 100 mmol/L NaCl; conditions: 37°C, up to 8 h

not cleaved [1]	Substance	fragment found (DPP4-like protease) [dipeptide fragments]
–	APEPEPAPEPEAEADAEADPEAGIGAVLKVLTTGLPALISWIKRKRQQ-NH2	11
not cleaved by FAP	NH2-GIGAVLKVLTTGLPALISWIKRKRQQ-NH2	–
